In PMC9731497, “Identification of potent anti-Cryptosporidium new drug leads by screening traditional Chinese medicines” (PLOS Neglected Tropical Diseases, 2022):
Where a name gives a salt, the structure may show the parent alone. Read-outs that look alike come from different tables or passages of the source.

Tests used:
C. parvum HNJ-1 strain [1] = experiment: In vitro C. parvum growth inhibition assay (Sporo-Glo staining, fluorescence microscopy count in infected HCT-8 cells); assay type: cell-based, Cryptosporidium parvum; conditions: for EC50 / inhibition at 1 µM: Cryptosporidium parvum; for EC50: read-out: EC50 value; for inhibition at 1 µM: read-out: Parasite inhibition (%); for Selectivity index: ratio of CC50 (HCT-8) / EC50 (C. parvum)
Method: The primary screening of compounds for C. parvum was performed as follows: HCT-8 cells were seeded in 96-well plates at a density of 2 × 10^4 cells/well and allowed to grow overnight. Before infecting cells, Cryptosporidium oocysts were excysted to sporozoites. 87 compounds were tested against C. parvum at a single concentration of 1 μM. Each compound was tested once. Infected HCT-8 cells and uninfected HCT-8 cells were used as positive and negative controls, respectively, in medium containing 0.1% DMSO. Nitazoxanide was used as a standard comparative drug. In vitro inhibition assays were carried out as previously described. Briefly, oocysts were suspended in 1 ml of 0.1% sodium hypochlorite in PBS, incubated for 5 min at 4°C, centrifuged for 10 min at 3000 rpm, and washed three times in PBS. The oocysts were then suspended in excystation solution consisting of 0.75% sodium taurocholate and 0.25% trypsin dissolved in 0.1 M phosphate buffer (with 93.4 mM K2HPO4 and 6.5 mM KH2PO4; pH 8.0) and incubated at 37°C for 1 h. The oocyst/sporozoite suspensions were then rinsed in 1 x PBS (with 137 mM NaCl, 2.7 mM KCl, 8 mM Na2HPO4, and 2 mM KH2PO4; pH 7.5) once more before being filtered through a 5-μm pore-size PVDF filter (Millipore, Burlington, MA, USA) with 5 ml syringe to remove the oocyst wall. HCT-8 cells were seeded in 96-well plates (Thermo Fisher Scientific Inc., MA, USA) and incubated overnight. The cells were then infected with C. parvum sporozoites (4 ×10^4 sporozoites/well) containing in RPMI-1640 medium for 3 h. After 3h inoculation, the non-infected parasite or debris were washed with new RPMI-1640 media. At this point, in RPMI-1640 medium containing 1 μM library compounds were added. Infected cells were incubated for an additional 45 h. Following incubation, the infected cells were fixed for 10 minutes in ice-cold 100% methanol at room temperature. Plates were then carefully rinsed 3 times with PBS. The parasite infected cells were then blocked with 1% bovine serum albumin (BSA) in PBS for 30 minutes and then stained with Sporo-Glo (an anti-Cryptosporidium polyclonal antibody) (Waterborne Environmental, Inc., VA, USA) protected from light for 1 h at room temperature. Finally, cells were washed twice with 1 x PBS-T (1 x PBS supplemented with 0.01% Tween). A Keyence BZ-II 9000 was used to capture the images (KEYENCE, Osaka, Japan). The plates were imaged with a HS all-in-one fluorescence microscope using a 20 x objective. The image output was imported into Microsoft excel for data organization and analyses. All C. parvum parasite in the well were counted.
For a second investigation, four selective hit compounds were used to determine the half-maximum inhibitory concentration (EC50). The parasites were treated with various doses of compounds (ranging from 0.008–1 μM). HCT-8 cells (2 × 10^4 cells/well) were grown for 24 h before being infected with 4 × 10^4 C. parvum sporozoites in 96-well plates. […] Sporo-Glo was used for C. parvum staining as described above. Fluorescence microscopy with a Keyence BZ-II 9000 imager was used to count all Cryptosporidium in the wells (KEYENCE, Osaka, Japan). EC50 vales were determined by analyzing dose-response curves made by GraphPad Prism (GraphPad Software, CA, USA).

C. parvum HNJ-1 strain [2] = experiment: In vivo C. parvum growth inhibition assay (oocyst shedding in feces of infected SCID mice, sugar flotation); set-up: species or system Cryptosporidium parvum; conditions: for numbers of oocysts discharged in the feces: 50, 25 and 12.5 mg/kg oral, infected SCID mice; for % of oocysts shedding / % reduction in oocysts shedding: initial dose-finding (S1 Table), 1 mouse; for % reduction in oocyst shedding: SCID mice n=3, vs untreated infected control
C. parvum = experiment: Histopathological analysis and immunohistochemistry of ileum of C. parvum-infected mice; assay type: in vivo, Cryptosporidium parvum; set-up: key to severity of C. parvum infection in ileum, Score: -, no oocysts; 1+, mild focal infection; 2+, moderate multifocal infection; 3+, severe diffuse infection; conditions: for severity of C. parvum infection in ileum, Score: HE and immunohistochemistry, most severe area, day 14, dose not stated; for reduction of oocysts, histopathological and scanning electron microscopy findings: ileum of infected treated mice (S2 Fig)
Method: (§1) We performed a histopathological analysis to evaluate the growth inhibitory effects and toxicity of the hit compounds in C. parvum-infected mice. In brief, ileum was collected, fixed in 10% neutral buffered formalin, and paraffin-embedded. Each section was cut to a thickness of 4 μm for hematoxylin and eosin (HE) staining and immunohistochemistry. Immunohistochemistry (IHC) was performed following standard techniques using the Envision+ system (Agilent Technologies, Inc., Santa Clara, CA) and 3,3-diaminobenzidine (DAB)(Dojindo, Kumamoto, Japan). Anti-Toxoplasma gondii (RH strain) rabbit polyclonal IgG (Abcam, Cambridge, UK) was used as the primary antibody. The antibody cross reacts with C. Parvum. To reduce the endogenous peroxidase activity, the sections were incubated with 3% H2O2 for 5 minutes. Sections were incubated with primary antibodies overnight at 4°C. After washing with PBS with Tween 20 (PBST), sections were incubated with Envision+ single polymer solution (Agilent Technologies Inc.) for 30 minutes at room temperature. Sections were counterstained with Mayer’s hematoxylin. The severity of C. parvum infection was evaluated in the most severe area, and scored from—to 3+ (-, no oocysts; 1+, mild focal infection; 2+, moderate multifocal infection; 3+, severe diffuse infection). Sub-effects of drugs (hepatocellular damage) were evaluated for major histological changes in karyomegaly, hepatocellular hypertrophy, and interstitial fibrosis/inflammation. We also checked the organs (liver, heart, lung, kidney, and intestines) alteration at necropsy whether it has abnormal or normal.

[3] = for body weight of treated infected mice: initial dose-finding doses, 11 consecutive days (S1 Fig)
Method: The growth inhibitory effect of the hit compounds was assessed in a mouse model infected with C. parvum oocysts. In this experiment, four-week-old female SCID mice (Charles River Laboratories, Shizuoka, Japan) were used. In the infected groups, mice were orally inoculated with 1.0 × 10^5 C. parvum oocysts by using sterile gavage needles. Initially, four compounds were tested at different concentrations to figure out the optimum dosages. Six groups of mice were given oral dosages of 50, 25, and 12.5 mg/kg body weight (BW) of two compounds (alisol-A and alisol-B). […] Bufotalin was given orally at three different doses to the other mouse group: 0.1, 0.05, and 0.025 mg/kg BW. […] The positive control group consisted of infected and untreated mice, whereas the negative control group consisted of noninfected and untreated mice. Treatment began on the third day after infection and lasted until the thirteenth day. The body weight and condition were checked every day, and treatment was given based on the body weight. On days 1, 3, 6, 7, 9, 12, 14, fecal samples were taken. The total number of oocysts per gram was calculated after counting the oocysts in the feces using the sugar flotation method. The treated and untreated mice were euthanized by cervical dislocation on day 14, and a thorough necropsy was performed.

[4] = Host cell viability assay (Cell-Titer Glo)
Method: (§2) HCT-8 cells (4 × 10^4 cells/well) 100 μl were seeded in 96-well plates, cultured for 24 h, and then treated for 48 h with different concentrations of hit compounds (10^1, 1, 10^−1, 10^−2, 10^−3, 10^−4 μM). After a 48-h incubation period, equilibrate the 96-well plates in room temperature (RT) for 30 minutes. Then, equal volume of Cell-Titer Glo (Promega) reagent was added to each treated well, the plate was shaken on an orbital shaker for 2 minutes then incubated for 10 minutes at RT. The luminescence was quantified by the GloMax Navigator plate reader (Promega, Japan) and the cell viability was evaluated as directed by the kit manufacturer. The luminescence signal of control wells containing DMSO was set to 100% cell viability. […] Graph Pad Prism 7.0.1 was used to determine CC50 values.

HCT-8 cells = experiment: Host cell viability assay (Cell-Titer Glo); conditions: HCT-8 cells, 48 h, 1 μM
Method: as §2

[5] = Liver histology (sub-effects of drugs, hepatocellular damage) in treated mice; assay type: in vivo, SCID mice; conditions: HE stain, infected treated mice (S3 Fig)
Method: as §1

[6] = 1 μM, 45 h, C. parvum HNJ-1 strain in HCT-8 cells, first screen
[7] = human, HCT-8 cells, Host cell viability (%), 48 h, 1 μM
[8] = human, Host cell viability (%), HCT-8 cells, 48 h, 1 μM

## C[C@H](C[C@H](O)[C@@H](O)C(C)(C)O)C1=C2C[C@H](O)[C@H]3[C@@]4(C)CCC(=O)C(C)(C)[C@@H]4CC[C@]3(C)[C@@]2(C)CC1 [Alisol-A]
C. parvum HNJ-1 strain [1]; HCT-8, C. parvum HNJ-1, 0.008–1 μM, 45 h, mean of three experiments
  EC50: 123 ± 6.7 nM
C. parvum HNJ-1 strain [1]; [6]
  inhibition at 1 µM: 78.1%
C. parvum HNJ-1 strain [1]
  Selectivity index: 484.4
C. parvum HNJ-1 strain [2]
  numbers of oocysts discharged in the feces: no significant reduction
C. parvum HNJ-1 strain [2]; 12.5 mg/kg BW, 11 days
  % of oocysts shedding: 55.6%
  % reduction in oocysts shedding: 44.4%
C. parvum
  severity of C. parvum infection in ileum, Score: 3+
  reduction of oocysts, histopathological and scanning electron microscopy findings: no notable reduction of oocysts
[3]
  body weight of treated infected mice: not significant
[3]; listed as alisol-A
  body weight of treated infected mice: no significant difference
[3]; oral, at 50 and 25 mg/kg body weight, infected SCID mice
  adverse effects / death of treated mice: died
[4]; human, HCT-8 cells
  CC50 at 48 h: 59.6 µM
[4]; [7]
  viability at 48 h, 1 µM: > 95%
HCT-8 cells
  Host cell viability (%): 99.5%

## C[C@H](C[C@H](O)[C@H]1OC1(C)C)C1=C2C[C@H](O)[C@H]3[C@@]4(C)CCC(=O)C(C)(C)[C@@H]4CC[C@]3(C)[C@@]2(C)CC1 [Alisol-B]
C. parvum HNJ-1 strain [1]; HCT-8, 45 h
  EC50: 79.6 ± 13.8 nM
  inhibition at 1 µM: 92.9%
C. parvum HNJ-1 strain [1]
  Selectivity index: 460.6
C. parvum HNJ-1 strain [2]
  numbers of oocysts discharged in the feces: no significant reduction
C. parvum HNJ-1 strain [2]; 12.5 mg/kg BW, 11 days
  % of oocysts shedding: 61.3%
  % reduction in oocysts shedding: 38.7%
C. parvum
  severity of C. parvum infection in ileum, Score: 2+
  reduction of oocysts, histopathological and scanning electron microscopy findings: no notable reduction of oocysts
[3]; mouse, in vivo
  adverse effects / death of treated mice: died
[4]; human
  CC50 at 48 h: 36.7 µM
[4]; [8]
  viability at 48 h, 1 µM: > 95%
HCT-8 cells
  Host cell viability (%): 97.6%

## CN1[C@@H]2CC[C@H]1C[C@@H](OC(=O)C(CO)c1ccccc1)C2 (stereo partly drawn) [Atropine sulfate, reference compound]
C. parvum HNJ-1 strain [1]; HCT-8, 45 h
  EC50: 254 ± 30.3 nM
  inhibition at 1 µM: 72.3%
C. parvum HNJ-1 strain [2]; 50 mg/kg BW oral, 11 days, SCID mice n=3, mean of days 3, 6, 7, 9, 12, 14
  No. of oocysts, Mean: 96.6
C. parvum HNJ-1 strain [2]; 50 mg/kg BW oral, 11 days
  % reduction in oocyst shedding: 56.2%
C. parvum HNJ-1 strain [2]; 100 mg/kg BW oral, 11 days, SCID mice n=3, mean of days 3, 6, 7, 9, 12, 14
  No. of oocysts, Mean: 91.1
C. parvum HNJ-1 strain [2]; 100 mg/kg BW oral, 11 days
  % reduction in oocyst shedding: 58.7%
C. parvum HNJ-1 strain [2]; 200 mg/kg BW oral, 11 days (day 3–13 p.i.), SCID mice n=3, mean of oocysts shed on days 3, 6, 7, 9, 12, 14
  No. of oocysts, Mean: 71.1
C. parvum HNJ-1 strain [2]; 200 mg/kg BW oral, 11 days
  % reduction in oocyst shedding: 67.8%
C. parvum HNJ-1 strain [2]; 25 mg/kg BW, 11 days
  % of oocysts shedding: 75.2%
  % reduction in oocysts shedding: 24.8%
C. parvum HNJ-1 strain [2]; 50 mg/kg BW, 11 days
  % reduction in oocysts shedding: 50.9%
C. parvum HNJ-1 strain [2]; 100 mg/kg BW, 11 days
  % of oocysts shedding: 45.1%
  % reduction in oocysts shedding: 54.9%
C. parvum
  severity of C. parvum infection in ileum, Score: 2+
[3]
  body weight of treated infected mice: not significant
[5]
  histological findings in liver: inflammation

## CC(=O)O[C@H]1[C@H]2O[C@]23[C@@H]2CC[C@]4(O)C[C@@H](O)CC[C@]4(C)[C@H]2CC[C@]3(C)[C@H]1c1ccc(=O)oc1 [Cinobufotalin]
C. parvum HNJ-1 strain [1]; HCT-8, 45 h
  inhibition at 1 µM: 70.7%
[4]; [8]
  viability at 48 h, 1 µM: 97.8%

## COc1cc(CNC(=O)CCCCCCC(C)C)ccc1O [Dihydrocapsaicin]
C. parvum HNJ-1 strain [1]; [6]
  inhibition at 1 µM: 70.8%
[4]; [7]
  viability at 48 h, 1 µM: 98.4%

## CC(C)=CCC[C@](C)(O[C@@H]1O[C@H](CO)[C@@H](O)[C@H](O)[C@H]1O)[C@H]1CC[C@]2(C)[C@@H]1[C@H](O)C[C@@H]1[C@@]3(C)CC[C@H](O)C(C)(C)[C@@H]3[C@@H](O[C@@H]3O[C@H](CO)[C@@H](O)[C@H](O)[C@H]3O[C@@H]3O[C@@H](C)[C@H](O)[C@@H](O)[C@H]3O)C[C@]12C [Ginsenoside-Re]
C. parvum HNJ-1 strain [1]; [6]
  inhibition at 1 µM: 71.2%
[4]; [7]
  viability at 48 h, 1 µM: 98.7%

## CC(C)=CCC[C@](C)(O[C@@H]1O[C@H](CO)[C@@H](O)[C@H](O)[C@H]1O)[C@H]1CC[C@]2(C)[C@@H]1[C@H](O)C[C@@H]1[C@@]3(C)CC[C@H](O)C(C)(C)[C@@H]3[C@@H](O[C@@H]3O[C@H](CO)[C@@H](O)[C@H](O)[C@H]3O)C[C@]12C [Ginsenoside-Rg1]
C. parvum HNJ-1 strain [1]; [6]
  inhibition at 1 µM: 67.9%
[4]; [7]
  viability at 48 h, 1 µM: 99.1%

## CC(C)=CC[C@@H](O)C1=CC(=O)c2c(O)ccc(O)c2C1=O [Shikonin]
C. parvum HNJ-1 strain [1]; HCT-8, 45 h
  inhibition at 1 µM: 66.2%
